This is an account of results in article PMC12385147, “Discovery of Novel 2-Substituted Aniline Pyrimidine Based Derivatives as Potent Mer/c-Met Dual Inhibitors with Improvement Bioavailability” (Biomolecules, 2025).

The target in one assay is T1, Mer kinase (Homo sapiens, UniProt Q12866).
T1 construct: purchased Invitrogen (Shanghai, China)
T1 sequence (Q12866 21-999): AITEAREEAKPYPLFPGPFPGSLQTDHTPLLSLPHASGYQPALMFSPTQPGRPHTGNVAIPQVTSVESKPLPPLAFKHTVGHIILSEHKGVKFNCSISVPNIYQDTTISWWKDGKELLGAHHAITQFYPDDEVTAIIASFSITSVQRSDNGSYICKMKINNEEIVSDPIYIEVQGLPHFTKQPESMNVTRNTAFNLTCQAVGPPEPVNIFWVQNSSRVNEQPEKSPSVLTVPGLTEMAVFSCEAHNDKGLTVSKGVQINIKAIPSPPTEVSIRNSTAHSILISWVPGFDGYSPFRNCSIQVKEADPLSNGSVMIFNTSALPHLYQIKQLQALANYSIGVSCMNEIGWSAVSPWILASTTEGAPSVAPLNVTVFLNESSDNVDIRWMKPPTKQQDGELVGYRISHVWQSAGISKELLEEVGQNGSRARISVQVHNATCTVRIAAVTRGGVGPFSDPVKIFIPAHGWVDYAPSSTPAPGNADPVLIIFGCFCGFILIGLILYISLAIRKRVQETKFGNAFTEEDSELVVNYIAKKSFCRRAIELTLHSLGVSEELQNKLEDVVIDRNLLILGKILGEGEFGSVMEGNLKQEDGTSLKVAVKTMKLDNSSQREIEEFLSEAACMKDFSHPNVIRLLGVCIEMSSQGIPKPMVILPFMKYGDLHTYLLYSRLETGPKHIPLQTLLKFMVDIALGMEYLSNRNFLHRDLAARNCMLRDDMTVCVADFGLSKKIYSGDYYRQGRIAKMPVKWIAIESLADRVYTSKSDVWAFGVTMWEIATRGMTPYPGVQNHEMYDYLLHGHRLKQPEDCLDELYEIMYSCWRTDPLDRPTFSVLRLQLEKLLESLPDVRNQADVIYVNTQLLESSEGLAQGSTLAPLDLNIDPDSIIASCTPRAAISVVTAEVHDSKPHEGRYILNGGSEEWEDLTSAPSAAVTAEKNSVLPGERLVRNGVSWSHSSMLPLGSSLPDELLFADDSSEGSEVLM
In words: Mer kinase inhibition assay (TK-Sub-Biotin / cryptate detection). The settings on record: means from three independent experiments. Type of assay: biochemical.

The target of another assay is T2, c-Met kinase (Homo sapiens, UniProt P08581).
T2 construct: purchased Invitrogen (Shanghai, China)
In words: c-Met kinase inhibition assay (TK-Sub-Biotin / cryptate detection). The settings on record: means from three independent experiments. The format is biochemical.

The next assay deals with HepG2. In words: Antiproliferation CCK-8 assay, HepG2. Type of assay: cell-based. The settings on record: Homo sapiens, CCK-8, 72 h. On the procedure:
(§1) The HepG2, MDA-MB-231, and HCT116 cell lines were derived from our own laboratory (the laboratory of our collaborator, Dr. Xiaolei Zhou, at College of Food Science and Biology in Hebei University of Science and Technology). The antiproliferative activities were assessed using the CCK-8 assay. Cell viability was measured according to the manufacturer’s instructions for the Cell Counting Kit-8 (Meilunbio, Dalian, China). In this assay, 2.5 × 10^3 cells per well were seeded into 96-well plates.
(§2) After an initial 12 h incubation, cancer cells were exposed to varying concentrations of compound 17c for 72 h. Following CCK-8 solution addition and 2 h incubation, the absorbance at 450 nm was measured using a BioTek Synergy HTX microplate reader. Experiments included triplicate wells with three independent replicates. The IC50 values for compound 17c were derived from an analysis of the dose–response curves in GraphPad PRISM 9.5.
(In general: Tetrazolium dyes change colour on reduction, which living cells bring about.)

The subject of a further assay is MDA-MB-231. In words: Antiproliferation CCK-8 assay, MDA-MB-231. The settings on record: Homo sapiens, CCK-8, 72 h. Type of assay: cell-based. On the procedure:
as §1, §2

The test system of a further assay is PC-3 prostate cancer. In words: Antiproliferation CCK-8 assay, PC-3. Type of assay: cell-based.
For a further assay, the target named is hERG potassium channel (Homo sapiens, UniProt Q12809). In words: hERG potassium channel QPatch automated patch clamp in CHO cells.
Assay [1] relates to Mer kinase phosphorylation. In words: Western blot, Mer phosphorylation in HCT116 cells. Type of assay: cell-based, human. The settings on record: 2.5 μM, 24 h, compared to the positive control. On the procedure:
Western blot assay was performed according to established protocols. HCT colon cancer cells were exposed to the specified concentration of compound 17c for 24 h, after which whole cell lysates were prepared using RAPI cell lysis buffer (Beyotime Institute of Biotechnology, Shanghai, China). Primary antibodies, purchased from Beyotime Institute of Biotechnology, were diluted at a ratio of 1:2000. The protein bands on polyvinylidene fluoride membranes were visualized and analyzed using Glyco Band-Scan Software Version 4.50. The antibody details are as follows:
Name: Phospho-MER/TYRO3 (Tyr753/Tyr685) antibody, Species: Rabit, Sequence: synthesized peptide derived from human MER/TYRO3 around the Phosphorylation site of Tyr753/Tyr685, Dilution: 1:2000, RRID number: AB_2840500, Catalogue number: AF8443, Supplier: Affinity Biosciences (Beijing, China).

Another assay deals with HCT116 cells. In words: Transwell migration assay of HCT116 cells. The format is cell-based. The settings on record: 24 h. On the procedure: Migration assays were conducted using Transwell® inserts (Costar, Cambridge, MA, USA) with an 8 μm pore size polycarbonate membrane. HCT116 cells (1.5 × 10^5) were seeded into the upper chamber with serum-free medium containing 0.2% BSA, while the lower chamber contained medium supplemented with 15% FBS. Compound 17c was applied at the specified concentrations to both sides of the membrane. After 24 h of incubation at 37 °C, the cells were fixed in methanol and stained with 0.1% crystal violet. Non-migrated cells on the upper surface of the membrane were removed using a cotton swab. Five random fields per well were imaged under brightfield microscopy, and the number of migrated cells was quantified using ImageJ software (1.53c). Each experiment was performed in triplicate.

SMILES strings stand for the structures.

Sequence of hERG potassium channel (Q12809 whole entry): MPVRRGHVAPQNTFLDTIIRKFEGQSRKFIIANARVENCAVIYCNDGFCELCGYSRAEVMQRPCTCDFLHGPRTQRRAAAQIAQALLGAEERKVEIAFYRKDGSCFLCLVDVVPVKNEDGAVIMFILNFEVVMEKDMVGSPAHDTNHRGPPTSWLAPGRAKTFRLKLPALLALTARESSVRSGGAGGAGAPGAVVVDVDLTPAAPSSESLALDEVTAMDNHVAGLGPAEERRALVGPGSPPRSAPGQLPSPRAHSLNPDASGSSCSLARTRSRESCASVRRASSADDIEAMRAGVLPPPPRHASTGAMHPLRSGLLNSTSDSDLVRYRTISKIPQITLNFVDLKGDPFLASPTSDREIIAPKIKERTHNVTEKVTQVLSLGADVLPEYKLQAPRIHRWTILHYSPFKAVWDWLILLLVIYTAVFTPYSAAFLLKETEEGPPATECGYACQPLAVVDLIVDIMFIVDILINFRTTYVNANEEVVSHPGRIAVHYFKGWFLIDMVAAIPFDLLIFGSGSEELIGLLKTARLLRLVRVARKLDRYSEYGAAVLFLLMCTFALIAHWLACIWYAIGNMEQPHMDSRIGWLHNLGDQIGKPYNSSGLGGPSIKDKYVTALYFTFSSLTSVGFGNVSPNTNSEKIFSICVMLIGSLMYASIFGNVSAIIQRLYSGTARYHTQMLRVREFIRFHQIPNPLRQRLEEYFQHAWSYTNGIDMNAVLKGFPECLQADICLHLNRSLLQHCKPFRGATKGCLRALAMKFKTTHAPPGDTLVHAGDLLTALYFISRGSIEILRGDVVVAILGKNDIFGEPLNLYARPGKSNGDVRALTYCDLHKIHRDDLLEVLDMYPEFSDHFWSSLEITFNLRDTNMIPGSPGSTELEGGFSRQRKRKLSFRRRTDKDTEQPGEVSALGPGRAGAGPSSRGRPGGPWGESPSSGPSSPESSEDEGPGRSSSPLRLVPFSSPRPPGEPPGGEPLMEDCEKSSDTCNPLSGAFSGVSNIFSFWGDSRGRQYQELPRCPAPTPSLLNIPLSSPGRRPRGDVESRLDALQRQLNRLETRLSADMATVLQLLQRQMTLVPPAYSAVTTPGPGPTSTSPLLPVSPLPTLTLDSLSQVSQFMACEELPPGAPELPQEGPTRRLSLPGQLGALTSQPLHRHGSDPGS
T2 sequence (P08581 25-1390): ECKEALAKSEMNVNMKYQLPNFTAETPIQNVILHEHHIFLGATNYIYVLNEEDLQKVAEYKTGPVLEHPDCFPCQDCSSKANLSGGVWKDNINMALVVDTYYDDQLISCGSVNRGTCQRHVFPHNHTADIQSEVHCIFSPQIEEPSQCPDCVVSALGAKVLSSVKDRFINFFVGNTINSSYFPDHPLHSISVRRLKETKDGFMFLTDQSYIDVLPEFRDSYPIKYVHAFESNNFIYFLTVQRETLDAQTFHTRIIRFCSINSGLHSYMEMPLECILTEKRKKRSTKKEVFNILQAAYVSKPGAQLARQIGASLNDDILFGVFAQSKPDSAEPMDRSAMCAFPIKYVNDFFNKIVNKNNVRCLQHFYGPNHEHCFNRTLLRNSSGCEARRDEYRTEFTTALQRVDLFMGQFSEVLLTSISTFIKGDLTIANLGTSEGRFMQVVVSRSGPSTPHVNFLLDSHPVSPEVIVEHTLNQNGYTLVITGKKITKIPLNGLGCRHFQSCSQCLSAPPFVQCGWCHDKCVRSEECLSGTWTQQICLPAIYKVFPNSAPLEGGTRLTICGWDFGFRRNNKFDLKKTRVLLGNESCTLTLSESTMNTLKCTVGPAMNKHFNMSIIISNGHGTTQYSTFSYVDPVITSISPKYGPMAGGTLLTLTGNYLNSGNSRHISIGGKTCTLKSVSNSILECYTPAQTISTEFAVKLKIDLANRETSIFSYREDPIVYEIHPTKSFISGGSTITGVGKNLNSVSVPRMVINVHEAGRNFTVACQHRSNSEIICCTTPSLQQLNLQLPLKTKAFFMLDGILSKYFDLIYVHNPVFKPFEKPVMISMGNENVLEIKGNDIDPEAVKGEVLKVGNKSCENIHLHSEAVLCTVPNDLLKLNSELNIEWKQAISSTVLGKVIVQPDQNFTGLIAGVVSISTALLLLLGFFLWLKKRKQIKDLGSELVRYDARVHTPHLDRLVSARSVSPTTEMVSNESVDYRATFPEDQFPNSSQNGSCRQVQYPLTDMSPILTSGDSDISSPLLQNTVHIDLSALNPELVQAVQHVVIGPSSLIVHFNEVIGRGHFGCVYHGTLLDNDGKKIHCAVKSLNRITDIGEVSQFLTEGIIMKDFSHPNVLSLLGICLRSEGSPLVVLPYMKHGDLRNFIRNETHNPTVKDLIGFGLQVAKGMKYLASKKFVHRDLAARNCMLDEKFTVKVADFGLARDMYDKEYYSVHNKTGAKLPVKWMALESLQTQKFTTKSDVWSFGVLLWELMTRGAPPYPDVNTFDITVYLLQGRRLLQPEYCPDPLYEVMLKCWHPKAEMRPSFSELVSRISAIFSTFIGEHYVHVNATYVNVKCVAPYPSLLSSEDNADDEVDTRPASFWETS

As for `Cc1c(C(=O)Nc2ccc(Oc3ccnc(Nc4cccc(OC5CCN(C)CC5)c4)n3)cc2)c(=O)n(-c2ccccc2)n1C` [compound 17c, 1,5-dimethyl-N-(4-((2-((3-((1-methylpiperidin-4-yl)oxy)phenyl)amino)pyrimidin-4-yl)oxy)phenyl)-3-oxo-2-phenyl-2,3-dihydro-1H-pyrazole-4-carboxamide], the IC50 at Mer kinase is 6.4 ± 1.8 nM; against c-Met kinase, 26.1 ± 7.7 nM; in the assay with HepG2 it was 460 ± 60 nM; with MDA-MB-231, 2310 ± 670 nM; in the assay with PC-3 prostate cancer (Homo sapiens, PC-3, CCK-8, read-out: IC50 PC-3 cells), 3.79 ± 1.09 µM; against hERG potassium channel, more than 40 µM. Also, the “times more effective than cabozantinib” value in the assay with PC-3 prostate cancer (PC-3 cells) came to 4.1 times. Besides, in assay [1], the “inhibition of Mer kinase phosphorylation” value is recorded as “significantly inhibited the phosphorylation”. The “inhibition of HCT116 cell migration” value in the assay on HCT116 cells was “effectively inhibits the migration capacity”.

Usually IC50 stands for the concentration at which inhibition is half-maximal.
